Data set [1] deals with CEM/VLB1000. Description: Cytotoxicity potentiation (alamar blue) of vinblastine in multidrug-resistant cells. The class given is cell-based. Conditions: midpoint of minimum and maximum cytotoxicity induced by 3-5 μg/mL vinblastine and compound, 48 h. The protocol:
Multidrug-resistant cell lines are easily obtainable for in vitro determination of drug sensitization by compounds of the present invention. In vitro potentiation of antineoplastic cytotoxicity by the imidazole derivatives of the present invention was measured in both CEM/VLB1000 and SK/VLB1000 cell lines. The multidrug resistant cell lines were obtained from Dr. Victor Ling, Ontario Cancer Institute, Toronto, Canada. The CEM/VLB 1000 cell line was maintained as a suspension in minimum essential medium supplemented with 10% fetal bovine serum in a humidied atmosphere of 95% air and 5% CO2 while the SK/VLB 1000 cell line was maintained as adherent cells using the identical medium conditions as the CEM cells. The CEM/VLB 1000 cells were seeded at a density of 5×10^4 cells/well in a 96 well microtiter plate while the SK/VLB 1000 cell line was seeded at a density of 2,500 cells/well after trypsinization. Vinblastine (5 μg/mL, for the CEM cells) or Taxol (3 μg/mL, for the SK cells) and compound (0.01 to 50 μM) were added directly to the wells. After an incubation of 48 hours in presence of drug, alamar blue (B. Page et al., Int. J. Oncol. 3: 473-476, 1993) was added (10 μL to the 200 μL cell suspension) for a period of 24 hours after which the fluorescence (excitation=530 nm, emission=590 nm) was read for each well using a "CytoFluor" microtiter fluorometer plate reader. This assay measures the effective concentration of compound necessary to enhance the cytotoxicity (EC50) of vinblastine in the MDR cell line.
^1 Values presented are the midpoint (EC50) of the minimum and
maximum cytotoxicity induced by 3-5 μg/mL vinblastine and the specific
compound of the present invention.
In general terms: Alamar Blue is a resazurin reagent that responds to reducing activity.

Data set [2] concerns CEM/VLB1000. Description: [3H]-vinblastine (VLB) accumulation assay. Type of data set: cell-based. The note with it: midpoint of minimum and maximum increase in accumulation of 3H-vinblastine (275 nM), 3 hours at 37° C. How it is done:
^3 H-vinblastine accumulation was also measured in the CEM/VLB1000 cell line. Corning Easy-Wash 96 well plates were pretreated with PBS and 1% BSA for 60 minutes and then removed. CEM/VLB1000 cells were seeded at 2×10^5, 40 μL volume. Plates were incubated at 37° C. for 30-60 minutes prior to use. The reference reversing agent, verapamil, or the compound of the present invention was added to the well followed by addition of media containing ^3 H-vinblastine (final concentration=275nM). Plates were allowed to incubate for 3 hours at 37° C. Cells were harvested onto pretreated Wallace filtermats A (pretreated with 0.1% polyethyleneimine) using a TomTek harvester-96. After filtering, the filtermats were allowed to dry completely. Meltix B scintillant was then added to the filtermats. The filters were then placed in a 90° C. oven for approximately 3-5 minutes and then removed. Scintillant was allowed to solidify on the filtermats. Filtermats were then placed in sample bags and read on a Wallace BetaPlate scintillation counter. The effects of compounds of the present invention in the cytotoxicity potentiation assays and vinblastine (VLB) accumulation assay are given in the Table below:
^2 Values presented are the midpoint (EC50) of the minimum and
maximum increase in accumulation of ^3 Hvinblastine caused by the
specific compound of the present invention.

With `CC(C)OC(=O)/C=C/c1ccc(-c2nc(-c3ccc(N(C)C)cc3)c(-c3ccc(N(C)C)cc3)[nH]2)cc1` [Example 38, 2-[4-(trans-i-propylpropenoate)phenyl]-4,5-bis[(4-N,N-dimethylamino)phenyl]imidazole], the EC50 (as a rule, the concentration needed to bring the measured effect to its halfway point) in data set [1] was 0.138 µM; in data set [2], 2.4 µM.

For `CN(C)c1ccc(-c2nc(-c3ccc(/C=C/C(=O)OC(C)(C)C)cc3)[nH]c2-c2ccc(N(C)C)cc2)cc1` [Example 39, 2-[4-(trans-t-butylpropenoate)phenyl]-4,5-bis[(4-N,N-dimethylamino)phenyl] imidazole], the results for the EC50 in data set [1] and in data set [2] were 0.59 µM and 4.5 µM, respectively.

For `CCN(CC)c1ccc(-c2[nH]c(-c3ccc(/C=C/C(=O)OC)cc3)nc2-c2ccc(NC)cc2)cc1` [Example 40, 2-[4-(trans-methylpropenoate)phenyl]-4-[(4-N,N-diethylamino)phenyl]-5-[(4-N-methylamino)phenyl] imidazole], the concentration giving a half-maximal response (EC50) in data set [1] is 0.226 µM; in data set [2], 1.1 µM.

In the case of `CCN(CC)c1ccc(-c2nc(-c3ccc(/C=C/C(=O)OC(C)C)cc3)[nH]c2-c2ccc(NC)cc2)cc1` [Example 41, 2-[4-(trans-i-propylpropenoate)phenyl]-4-[(4-N,N-diethylamino)phenyl]-5-[(4-N-methylamino)phenyl] imidazole], the results for the EC50 in data set [1] and in data set [2] were 0.42 µM and 6 µM, respectively.

Turning to `CNc1ccc(-c2[nH]c(-c3ccc(/C=C/C(=O)OC)cc3)nc2-c2ccc(N(C)C)cc2)cc1` [Example 42, 2-[4-(trans-methylpropenoate)phenyl]-4-[(4-N,N-dimethylamino)phenyl]-5-[(4-N-methylamino)phenyl] imidazole], the EC50 in data set [1] stood at 0.17 µM; in data set [2], 1.1 µM.

Regarding `CCCN(C)c1ccc(-c2nc(-c3ccc(/C=C/C(=O)OC)cc3)[nH]c2-c2ccc(NC)cc2)cc1` [Example 43, 2-[4-(trans-methylpropenoate)phenyl]-4-[(4-N-methyl-N-propylamino)phenyl]-5-[(4-N-methylamino)phenyl] imidazole], the EC50 in data set [1] was determined as 0.148 µM; in data set [2] it was 2.3 µM.

Regarding `CCCN(CCC)c1ccc(-c2[nH]c(-c3ccc(/C=C/C(=O)OC)cc3)nc2-c2ccc(NC)cc2)cc1` [Example 44, 2-[4-(trans-methylpropenoate)phenyl]-4-[(4-N,N-dipropylamino)phenyl]-5-[(4-N-methylamino)phenyl] imidazole], the EC50 in data set [1] was 0.165 µM; in data set [2] it was 1.4 µM.

On to `CCCCN(CCCC)c1ccc(-c2[nH]c(-c3ccc(/C=C/C(=O)OC)cc3)nc2-c2ccc(NC)cc2)cc1` [Example 45, 2-[4-(trans-methylpropenoate)phenyl]-4-[(4-N,N-dibutylamino)phenyl]-5-[(4-N-methylamino)phenyl] imidazole], for which the results for the EC50 in data set [1] and in data set [2] were 1.9 µM and 10 µM, respectively.

Take `CNc1ccc(-c2nc(-c3ccc(/C=C/C(=O)OC)cc3)[nH]c2-c2ccc(NC)cc2)cc1` [Example 46, 2-[4-(trans-methylpropenoate)phenyl]-4,5-bis(4-N-methylaminophenyl) imidazole]: the figures for the EC50 in data set [1] and in data set [2] were 0.203 µM and 1.4 µM, respectively.

For `CNc1ccc(-c2[nH]c(-c3ccc(/C=C/C(=O)OC)cc3)nc2-c2ccc(NC(C)C)cc2)cc1` [Example 47, 2-[4-(trans-methylpropenoate)phenyl]-4-[(4-N-i-propylamino)phenyl]-5-[(4-N-methylamino)phenyl] imidazole], the 50% effective concentration (EC50) came out at 0.194 µM in data set [1] and 0.87 µM in data set [2].

As to `CNc1ccc(-c2[nH]c(-c3ccc(/C=C/C(=O)OC)cc3)nc2-c2ccc(NC(C)(C)C)cc2)cc1` [Example 48, 2-[4-(trans-methylpropenoate)phenyl]-4-[(4-N-t-butylamino)phenyl]-5-[(4-N-methylamino)phenyl] imidazole], the EC50 in data set [1] was determined as 0.24 µM; in data set [2] it was 1.2 µM.

As for `CCN(CC)c1ccc(-c2nc(-c3ccc(/C=C/C(=O)OC)cc3)[nH]c2-c2ccc(N(CC)CC)cc2)cc1` [Example 49, 2-[4-(trans-methylpropenoate)phenyl]-4,5-bis(4-N,N-diethylaminophenyl) imidazole], the EC50 was 0.675 µM in data set [1] and 5 µM in data set [2].

For `CCN(CC)c1ccc(-c2nc(-c3ccc(/C=C/C(=O)OC)cc3)[nH]c2-c2ccc(N(C)C)cc2)cc1` [Example 50, 2-[4-(trans-methylpropenoate)phenyl]-4-[(4-N,N-diethylamino)phenyl]-5-[(4-N,N-dimethylamino)phenyl] imidazole], the EC50 in data set [1] was determined as 0.225 µM; in data set [2], 4.9 µM.

In the case of `COC(=O)/C=C/c1ccc(-c2nc(-c3ccc(N)cc3)c(-c3ccc(N(C)C)cc3)[nH]2)cc1` [Example 51, 2-[4-(trans-methylpropenoate)phenyl]-4-[(4-N,N-dimethylamino)phenyl]-5-(4-aminophenyl) imidazole], the results for the EC50 in data set [1] and in data set [2] were 0.48 µM and 2.6 µM, respectively.

On to `CCN(CC)c1ccc(-c2[nH]c(-c3ccc(/C=C/C(=O)OC)cc3)nc2-c2ccc(N)cc2)cc1` [Example 52, 2-[4-(trans-methylpropenoate)phenyl]-4-[(4-N,N-diethylamino)phenyl]-5-(4-aminophenyl) imidazole], for which the EC50 in data set [1] was determined as 0.275 µM; in data set [2] it was 2.6 µM.

Regarding `CNc1ccc(-c2nc(-c3ccc(/C=C/C(=O)OC)cc3)[nH]c2-c2ccc(F)cc2)cc1` [Example 53, 2-[4-(trans-methylpropenoate)phenyl]-4-[(4-N-methylamino)phenyl]-5-(4-fluorophenyl) imidazole], the EC50 worked out at 0.63 µM in data set [1] and 6.5 µM in data set [2].

Take `COC(=O)/C=C/c1cccc(-c2nc(-c3ccc(N(C)C)cc3)c(-c3ccc(N(C)C)cc3)[nH]2)c1` [Example 54, 2-[3-(trans-methylpropenoate)phenyl]-4,5-bis(4-N,N-dimethylaminophenyl) imidazole]: the EC50 in data set [1] is 0.256 µM; in data set [2], 4.8 µM.

Consider `COC(=O)/C=C/c1cc(-c2nc(-c3ccc(N(C)C)cc3)c(-c3ccc(N(C)C)cc3)[nH]2)ccc1OC` [Example 55, 2-[4-methoxy-3-(trans-methylpropenoate)phenyl]-4,5-bis(4-N,N-dimethylaminophenyl) imidazole], for which the EC50 in data set [1] stood at 0.37 µM; in data set [2], 6 µM.

With `COC(=O)/C=C/c1ccc(OC)c(-c2nc(-c3ccc(N(C)C)cc3)c(-c3ccc(N(C)C)cc3)[nH]2)c1` [Example 56, 2-[2-methoxy-5-(trans-methylpropenoate)phenyl]-4,5-bis(4-N,N-dimethylaminophenyl) imidazole], the EC50 in data set [1] came out at 0.126 µM; in data set [2], 2.8 µM.

In the case of `COC(=O)/C=C/c1cc(-c2nc(-c3ccc(N(C)C)cc3)c(-c3ccc(N(C)C)cc3)[nH]2)cc(OC)c1OC` [Example 57, 2-[3,4-dimethoxy-5-(trans-methylpropenoate)phenyl]-4,5-bis(4-N,N-dimethylaminophenyl) imidazole], the EC50 in data set [1] was 0.453 µM; in data set [2] it was 2.8 µM.

As to `CCOCCCc1ccc(-c2nc(-c3ccc(N(C)C)cc3)c(-c3ccc(N(C)C)cc3)[nH]2)cc1` [Example 69, 2-[4-(3-ethoxypropyl)phenyl]-4,5-bis[(4-N,N-dimethylamino)phenyl] imidazole], the EC50 in data set [1] came out at 0.21 µM.

Take `CCCCOc1ccc(-c2nc(-c3ccc(N(C)C)cc3)c(-c3ccc(N(C)C)cc3)[nH]2)cc1` [Example 70, 2-[4-butyloxyphenyl]-4,5-bis[(4-N,N-dimethylamino)phenyl] imidazole]: in data set [1], the EC50 is 0.43 µM.

In the case of `COCCOc1ccc(-c2nc(-c3ccc(N(C)C)cc3)c(-c3ccc(N(C)C)cc3)[nH]2)cc1` [Example 71, 2-[4-(2-methoxyethoxy)phenyl]-4,5-bis[(4-N,N-dimethylamino)phenyl] imidazole], the EC50 in data set [1] was found to be 0.17 µM.

With `COCCOc1ccc(-c2nc(-c3ccc(N(C)C)cc3)c(-c3ccc(N(C)C)cc3)[nH]2)cc1OC` [Example 72, 2-[3-methoxy-4-(2-methoxyethoxy)-phenyl]-4,5-bis[(4-N,N-dimethylamino)phenyl] imidazole], in data set [1], the EC50 was found to be 0.16 µM.

The values are drawn from US5756527A, “Imidazole derivatives useful as modulators of multi drug resistances” (Ontogen Corporation, priority 1997, dated 1998).
